Data from patent US6387909B1, “Thienopyranecarboxamide derivatives” (Recordati S.A. Chemical and Pharmaceutical Company, priority 1999, dated 2002).
Read-outs that look alike come from different tables or passages of the source.

How the values were obtained:
[1] = system: prostatic urethral contractions induced by noradrenaline; conditions: dog, i.v.; data from Leonardi et al. 1997; cited from earlier work
diastolic blood pressure [2] = conditions: dog, i.v.; data from Leonardi et al. 1997; cited from earlier work
[3] = molecular target: T1, recombinant α1b-adrenoceptor (Homo sapiens, UniProt P35368); experiment: Radioligand binding ([3H]prazosin) to cloned α1b adrenoceptor; conditions: read-out: Affinity (Ki) α1b
T1 construct: expressed in transfected cells
T1 sequence (P35368 1-520): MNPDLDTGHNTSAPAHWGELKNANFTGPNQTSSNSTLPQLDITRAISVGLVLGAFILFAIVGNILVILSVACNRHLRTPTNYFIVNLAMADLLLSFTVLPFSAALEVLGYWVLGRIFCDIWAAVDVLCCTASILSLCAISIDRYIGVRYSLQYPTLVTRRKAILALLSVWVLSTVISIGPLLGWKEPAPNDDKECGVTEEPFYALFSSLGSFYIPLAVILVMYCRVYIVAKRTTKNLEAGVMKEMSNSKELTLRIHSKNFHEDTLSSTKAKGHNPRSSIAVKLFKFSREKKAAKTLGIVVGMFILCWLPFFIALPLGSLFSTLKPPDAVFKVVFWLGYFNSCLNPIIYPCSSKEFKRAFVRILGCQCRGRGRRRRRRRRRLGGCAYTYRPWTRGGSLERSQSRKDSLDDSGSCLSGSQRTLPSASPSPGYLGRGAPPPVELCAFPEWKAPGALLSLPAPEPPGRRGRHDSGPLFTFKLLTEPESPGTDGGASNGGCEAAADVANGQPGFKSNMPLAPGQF
Description: (§1) Determination of affinity for cloned subtypes of the α1-adrenoceptor was performed in membranes from cells transfected by electroporation with DNA expressing the genes encoding each α1-adrenoceptor subtype.
(§2) Non-specific binding was determined in the presence of 10 μM phentolamine. Incubation was stopped by addition of ice-cold Tris buffer and rapid filtration through Schleicher & Schuell GF52 filters that had been pretreated with 0.2%-polyethyleneimine.
(§3) Data were expressed as mean of Ki.

diastolic blood pressure [4] = experiment: Blood pressure in anaesthetized dogs after intravenous administration; type: in vivo; conditions: dog, i.v.
Description: (§4) The experiments were performed according to the method of Imagawa et al. (J. Pharmacol. Methods, 22:103-111, 1989), with substantial modifications, as follows: adult male beagle dogs, weighing 8-10 kg, were anaesthetized with pentobarbital sodium (30 mg/kg i.v. and 2 mg/kg/h i.v.), intubated and spontaneously ventilated with room air. In order to monitor systemic blood pressure (BP), a polyethylene (PE) catheter was introduced into the aortic arch through the left femoral artery. A collateral of the left femoral vein was cannulated for infusion of anaesthetic, and the right femoral vein was cannulated for administration of compounds. For intraarterial (i.a.) injection of noradrenaline (NA), a PE catheter was introduced into the lower portion of the abdominal aorta via the right external iliac artery. Through such procedure, NA was selectively distributed to the lower urinary tract. A paramedian vertical suprapubic incision extending from the base of the pelvis to the mid-abdominal region was made and the bladder and the prostate were exposed. The bladder was manually emptied with a syringe. Prostatic urethral pressure was monitored with a Mikro-tip catheter (5F) introduced into the bladder via the external urethral meatus, and withdrawn until the pressure transducer was positioned in the prostatic region of the urethra. A ligature was secured between the neck of the bladder and urethra to isolate the response of the latter and to avoid any interaction with the bladder. Another ligature was put around the Mikro-tip catheter at the external meatus, to secure the catheter itself.
(§5) After a stabilizing period following the surgical procedure (30 minutes), in which arterial and prostatic urethral pressures were continuously monitored as basal values, i.a. administration of NA was made at intervals of 20 minutes.
(§6) The NA doses were chosen to produce an increase of at least 100% in urethral pressure. The test compounds were administered intravenously in a cumulative manner with intervals of 15-20 minutes between administrations. […]

[5] = system: prostatic urethral contractions induced by noradrenaline; experiment: Urethral contractions induced by noradrenaline injection in anaesthetized dogs after intravenous administration; type: in vivo; conditions: dog, i.v.
Description: as §4, §5, §6

[6] = molecular target: T2, recombinant α1d-adrenoceptor (Homo sapiens, UniProt P25100); experiment: Radioligand binding ([3H]prazosin) to cloned α1d adrenoceptor; conditions: read-out: Affinity (Ki) α1d
T2 construct: expressed in transfected cells
T2 sequence (P25100 1-572): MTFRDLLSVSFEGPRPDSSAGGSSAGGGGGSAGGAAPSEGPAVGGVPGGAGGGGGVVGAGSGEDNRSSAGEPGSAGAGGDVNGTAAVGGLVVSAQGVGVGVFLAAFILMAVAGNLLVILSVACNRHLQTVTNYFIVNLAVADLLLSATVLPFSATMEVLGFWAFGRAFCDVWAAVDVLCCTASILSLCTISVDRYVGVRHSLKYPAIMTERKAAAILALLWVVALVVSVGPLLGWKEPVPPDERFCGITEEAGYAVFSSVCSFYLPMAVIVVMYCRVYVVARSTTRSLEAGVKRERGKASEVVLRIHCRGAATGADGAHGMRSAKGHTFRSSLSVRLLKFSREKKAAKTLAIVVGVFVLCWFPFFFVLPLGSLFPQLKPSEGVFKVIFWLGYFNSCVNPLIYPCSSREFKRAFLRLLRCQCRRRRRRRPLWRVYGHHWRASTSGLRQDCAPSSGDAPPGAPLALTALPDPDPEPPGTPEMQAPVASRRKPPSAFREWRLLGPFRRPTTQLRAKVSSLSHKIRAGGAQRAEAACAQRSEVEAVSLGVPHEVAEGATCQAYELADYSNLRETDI
Description: as §1, §2, §3

[7] = molecular target: T3, recombinant α1a-adrenoceptor (Homo sapiens, UniProt P35348); experiment: Radioligand binding ([3H]prazosin) to cloned α1a adrenoceptor; conditions: read-out: Affinity (Ki) α1a
T3 construct: expressed in transfected cells
T3 sequence (P35348 1-466): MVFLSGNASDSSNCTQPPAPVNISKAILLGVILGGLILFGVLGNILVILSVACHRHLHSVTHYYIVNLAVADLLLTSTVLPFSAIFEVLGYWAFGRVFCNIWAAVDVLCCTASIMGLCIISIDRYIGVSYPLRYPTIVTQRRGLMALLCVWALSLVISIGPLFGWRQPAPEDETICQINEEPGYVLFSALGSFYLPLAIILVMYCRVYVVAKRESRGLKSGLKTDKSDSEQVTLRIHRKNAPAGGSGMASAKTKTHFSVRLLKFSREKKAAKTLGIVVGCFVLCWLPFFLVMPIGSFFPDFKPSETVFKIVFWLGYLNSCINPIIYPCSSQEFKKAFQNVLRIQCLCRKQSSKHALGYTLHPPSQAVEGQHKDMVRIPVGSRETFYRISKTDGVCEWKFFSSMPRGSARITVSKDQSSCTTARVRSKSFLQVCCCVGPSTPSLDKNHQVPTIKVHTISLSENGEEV
Description: as §1, §2, §3

[8] = molecular target: T4, human 5-HT1A-serotoninergic receptor (Homo sapiens, UniProt P08908); experiment: Radioligand binding ([3H]8-OH-DPAT) to cloned 5-HT1A receptor in HeLa cell membranes; conditions: read-out: Affinity (Ki) 5-HT1A
T4 construct: expressed in transfected cells; host or cells: HeLa
T4 sequence (P08908 1-422): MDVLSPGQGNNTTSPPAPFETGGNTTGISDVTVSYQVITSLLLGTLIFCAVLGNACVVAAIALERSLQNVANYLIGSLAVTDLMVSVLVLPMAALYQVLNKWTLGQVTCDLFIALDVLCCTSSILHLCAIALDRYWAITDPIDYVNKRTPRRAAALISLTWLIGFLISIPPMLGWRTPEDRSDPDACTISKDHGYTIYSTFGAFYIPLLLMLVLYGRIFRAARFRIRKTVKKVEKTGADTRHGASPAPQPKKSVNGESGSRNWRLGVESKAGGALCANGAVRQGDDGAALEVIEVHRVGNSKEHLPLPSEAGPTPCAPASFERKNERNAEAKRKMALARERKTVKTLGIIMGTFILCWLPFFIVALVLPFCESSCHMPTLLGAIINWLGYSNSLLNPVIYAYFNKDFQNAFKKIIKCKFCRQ
Description: HeLa cells were grown as monolayers in Dulbecco's modified Eagle's medium (DMEM), supplemented with 10% fetal calf serum and gentamicin (100 μg/mL), at 37° C. in 5% CO2. The cells were detached from the growth flask at 95% confluence by a cell scraper and were lysed in a buffer containing ice cold 5 mM Tris, 5 mM EDTA (pH 7.4). The homogenates were centrifuged at 40,000×g for 20 minutes and the membranes were resuspended in a small volume of ice-cold buffer containing 5 mM Tris and 5 mM, EDTA (pH 7.4), and immediately frozen and stored at −70° C. until use.
Non-specific binding was determined in the presence of 10 μM 5-HT. Incubation was stopped by addition of ice-cold Tris buffer and rapid filtration through Schleicher & Schuell GF52 filters that had been pretreated with 0.2%-polyethyleneimine.
as §3

α1L adrenoceptor = molecular target: T5, α1L adrenoceptor (Oryctolagus cuniculus, UniProt O02824); experiment: Functional antagonism of noradrenaline-induced contractions of rabbit aorta pretreated with chloroethylclonidine; type: biochemical; conditions: NA-induced contractions
T5 sequence (O02824 1-466): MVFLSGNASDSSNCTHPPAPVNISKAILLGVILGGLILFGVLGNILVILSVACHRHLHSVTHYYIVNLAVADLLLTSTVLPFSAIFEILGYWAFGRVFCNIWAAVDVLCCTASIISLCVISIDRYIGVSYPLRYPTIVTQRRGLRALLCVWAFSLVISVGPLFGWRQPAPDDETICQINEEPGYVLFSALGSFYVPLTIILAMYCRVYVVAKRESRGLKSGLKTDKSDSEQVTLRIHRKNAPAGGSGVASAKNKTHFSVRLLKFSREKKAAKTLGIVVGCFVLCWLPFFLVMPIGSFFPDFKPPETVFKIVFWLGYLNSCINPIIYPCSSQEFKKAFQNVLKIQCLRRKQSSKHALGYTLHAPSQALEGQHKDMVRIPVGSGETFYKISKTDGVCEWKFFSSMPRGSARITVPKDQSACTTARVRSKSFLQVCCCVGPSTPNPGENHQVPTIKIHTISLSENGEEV
Description: Adult male New Zealand rabbits were sacrificed by cervical dislocation. The aorta was removed, placed in Krebs-Henseleit buffer and dissected free of adhering tissue. […] Desmethylimipramine (0.1 μM) and corticosterone (1 μM) to block neuronal and extraneuronal uptake of NA, (±)-propranol (1 μM) to block β adrenoceptors and yohimbine (0.1 μM) to block α2 adrenoceptors were added to the buffer.
The preparations were equilibrated for 60 minutes and then primed every 30 minutes with 10 μM NA for three times. The aortic rings were then incubated with the alkylating agent chloroethylclonidine (50 μM) for 30 minutes and then washed extensively three times, over a 30 min period before constructing the NA-concentration/response curve. Following washing, tissue was re-equilibrated for 45 min. Test drug was added and after 30 minutes, a second cumulative-NA-concentration/response curve was constructed. Each antagonist concentration was tested using 2-3 aortic rings from different rabbits.
Dose ratios (i.e., the ratio between the concentrations of noradrenaline required to produce half-maximal response in the presence and in the absence of the test antagonist) were calculated at each concentration of the compounds. The logarithm of these dose ratio −1 was plotted against the logarithm of the compound concentrations (Schild plot) to evaluate the affinity constant Kb.
When only one or two concentrations of the test compounds were utilised, the apparent Kb value was calculated using the formula: Kb=[B]/(DOSE RATIO-1), where B is the antagonist concentration.

Ki [3] [nM]	Ki [6] [nM]	Ki [7] [nM]	Ki [8] [nM]	pKb, functional affinity for the α1L adrenoceptor subtype (α1L adrenoceptor)	SMILES	UC ID50 NA (dose inhibiting by 50% the urethral contractions induced by noradrenaline) [1] [mg/kg]	DBP ED25 (dose inducing a 25% decrease in diastolic blood pressure) (diastolic blood pressure [2]) [mg/kg]	DBP ED25 (dose inducing a 25% decrease in diastolic blood pressure) (diastolic blood pressure [4]) [mg/kg]	UC ID50 NA (dose inhibiting by 50% the urethral contractions induced by noradrenaline) [5] [mg/kg]
–	–	–	–	–	COc1ccccc1N1CCN(CCCNC(=O)c2cccc3c(=O)c(C)c(-c4ccccc4)oc23)CC1 [Compound A]	0.0024	0.243	–	–
2.53	4.12	0.58	–	–	COc1ccc(Cl)cc1N1CCN(CCCNC(=O)c2csc3c(=O)cc(-c4ccccc4)oc23)CC1 [Example 1, N-{3-[4-(5-Chloro-2-methoxyphenyl)1-piperazinyl]propyl}-7-oxo-5-phenyl-7H-thieno[3,2-b]Pyran-3-carboxamide]	–	–	0.28	0.0053
23.2	3.6	0.6	26.2	7.92	COc1ccccc1N1CCN(CCCNC(=O)c2csc3c(=O)cc(C(F)(F)F)oc23)CC1 [Example 4, N-{3-[4-(2-Methoxyphenyl)-1-piperazinyl]propyl}-7-oxo-5-trifluoromethyl-7H-thieno[3,2b]pyran-3-carboxamide]	–	–	–	–
39.3	48.2	3.19	1080	–	COc1ccc(OCC(F)(F)F)cc1N1CCN(CCCNC(=O)c2csc3c(=O)cc(-c4ccccc4)oc23)CC1 [Example 6, N-{3-[4-[2-Methoxy-5-(2,2,2-trifluoroethoxy)phenyl]-1-piperazinyl]propyl}-7-oxo-5-phenyl7H-thieno[3,2-b]pyran-3-carboxamide]	–	–	–	–
3.47	2.45	0.17	88.5	8.66	O=C(NCCCN1CCN(c2ccc(F)cc2OCC(F)(F)F)CC1)c1csc2c(=O)cc(-c3ccccc3)oc12 [Example 7, N-{3-[4-[4-Fluoro-2-(2,2,2-trifluoroethoxy)phenyl]-1-piperazinyl]propyl}-7-oxo-5-phenyl-7H-thieno[3,2-b]pyran-3-carboxamide]	–	–	–	–
